Assay results: US11612570B2, “Decreased adhesivity receptor-targeted nanoparticles for Fn14-positive tumors” (UNIVERSITY OF MARYLAND, BALTIMORE, priority 2014, dated 2023)

Columns and labels:
231-Luc cells = test: In vitro cytotoxicity (MTS assay); format: cell-based, human
Method: For cytotoxicity assays, 231-Luc cells were cultured in 96-well plates at 5×10^3 cells/well for 24 hours. Culture media was removed and replaced with media containing various treatment groups. […] The culture media was removed after 2 hours of incubation to mimic the clearance mechanism and replaced with fresh culture media. Cell viability was then measured after 24 hours with percent viability calculated as absorbance relative to control wells (cell with culture media). A total of 3 wells were used per treatment per concentration for each experiment.

231-Br-Luc cells = test: In vitro cytotoxicity (MTS assay) in brain-seeking TNBC cells; format: cell-based, human; settings: 24 hours' incubation

`CC(=O)O[C@H]1C(=O)[C@@]2(C)[C@H]([C@H](OC(=O)c3ccccc3)[C@]3(O)C[C@H](OC(=O)[C@H](O)[C@@H](NC(=O)c4ccccc4)c4ccccc4)C(C)=C1C3(C)C)[C@]1(OC(C)=O)CO[C@@H]1C[C@@H]2O` [PTX, Paclitaxel] was tested, and the “effect on cell viability / cytotoxicity” value (231-Luc cells; 2 hours exposure, then fresh media for 24 hours) was “only a small effect on cell viability”, the cytotoxicity (231-Luc cells; 24 hours in culture media) was “more potent than Abraxane™” and the “cell sensitivity (viability)” value (231-Br-Luc cells) was “sensitive to PTX treatment in vitro”.
